Tests used:
Assay in all cases: relative viability (nuclei count vs DMSO), 5 days (fraction); higher = more cells survive
[1] = compound: CN[C@@H]1C[C@H]2O[C@@](C)([C@@H]1OC)n1c3ccccc3c3c4c(c5c6ccccc6n2c5c31)C(=O)NC4 [Staurosporine] + Nc1nc2[nH]cc(CCc3ccc(C(=O)N[C@@H](CCC(=O)O)C(=O)O)cc3)c2c(=O)[nH]1 [Pemetrexed] (partner 0.2 µM)
Outline: (§1)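 Dosing by pin tool came one day after lung cancer cell lines were seeded in 1536-well plates, using either one drug or a fixed anchor-drug dose plus five library-drug doses (not always all listed) in √10 steps. After 5 days, nuclei were counted on 4× images. Relative viability is treated-well nuclei count divided by vehicle-well nuclei count, and values are medians of duplicate plates.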

[2] = compound: O=c1[nH]cc(F)c(=O)[nH]1 [5-Fluorouracil] + Nc1nc2[nH]cc(CCc3ccc(C(=O)N[C@@H](CCC(=O)O)C(=O)O)cc3)c2c(=O)[nH]1 [Pemetrexed] (partner 0.2 µM)
Outline: as §1

Sulindac + Tozasertib = compound: CC1=C(CC(=O)O)c2cc(F)ccc2/C1=C\c1ccc([S+](C)[O-])cc1 [Sulindac] + Cc1cc(Nc2cc(N3CCN(C)CC3)nc(Sc3ccc(NC(=O)C4CC4)cc3)n2)n[nH]1 [Tozasertib] (partner 0.1 µM)
Outline: as §1

[3] = compound: O=c1[nH]cc(F)c(=O)[nH]1 [5-Fluorouracil] + Cc1nc(Nc2ncc(C(=O)Nc3c(C)cccc3Cl)s2)cc(N2CCN(CCO)CC2)n1 [Dasatinib] (partner 0.075 µM)
Outline: as §1

Cell Line	relative viability ([1]; first compound 0.005 µM)	relative viability ([1]; first compound 0.01581 µM)	relative viability ([1]; first compound 0.05 µM)	relative viability ([1]; first compound 0.1581 µM)	relative viability ([1]; first compound 0.5 µM)	relative viability ([2]; first compound 0.02 µM)	relative viability ([2]; first compound 0.2 µM)	relative viability ([2]; first compound 0.6325 µM)	relative viability ([2]; first compound 2 µM)	relative viability (Sulindac + Tozasertib; first compound 0.08 µM)	relative viability (Sulindac + Tozasertib; first compound 0.253 µM)	relative viability (Sulindac + Tozasertib; first compound 0.8 µM)	relative viability (Sulindac + Tozasertib; first compound 2.53 µM)	relative viability (Sulindac + Tozasertib; first compound 8 µM)	relative viability ([3]; first compound 0.02 µM)	relative viability ([3]; first compound 0.2 µM)	relative viability ([3]; first compound 0.6325 µM)	relative viability ([3]; first compound 2 µM)
NCI-H358	0.165	0.158	0.102	0.102	0.0764	0.177	0.182	0.172	0.169	0.112	0.0982	0.104	0.0899	0.102	0.206	0.199	0.2	0.161
NCI-H441	0.246	0.203	0.177	0.157	0.147	0.262	0.27	0.235	0.239	0.763	0.773	0.593	0.725	0.667	0.748	0.63	0.49	0.278
NCI-H460	0.065	0.0547	0.0426	0.0415	0.0101	0.0627	0.0623	0.0575	0.0952	0.639	0.439	0.667	0.46	0.314	0.584	0.488	0.159	0.0618
NCI-H520	0.579	0.394	0.295	0.181	0.148	0.625	0.742	0.541	0.41	0.431	0.4	0.435	0.437	0.48	0.152	0.234	0.174	0.142
NCI-H522	1.08	0.7	0.847	0.742	0.579	0.891	1.1	1.03	0.95	0.676	0.643	0.541	0.502	0.575	0.844	0.852	0.979	0.868
NCI-H727										0.609	1.78		0.451	0.795	0.38	0.395	0.378	0.375
NCI-H1563	0.543	0.39	0.522	0.45	0.41	0.711	0.924	0.786	0.732						0.396	0.517	0.423	0.483
NCI-H1623										0.392	0.458	0.421	0.418	0.429	0.412	0.64	0.256	0.232
NCI-H1648	0.582	0.321	0.344	0.325	0.42	0.816	0.864	0.572	0.332	0.397	0.482	0.345	0.415	0.389				
NCI-H1792	0.28	0.0706	0.0856	0.056	0.0352	0.948	0.569	0.215	0.191						0.929	0.714	0.277	0.196

— the supplement of paper PMC10307832
